pEC50, pIC50, pKi: −log10 of the molar value. Peptide text beside a SMILES is read from it.
Experiments:
[1] = target: T1, Replicase polyprotein 1ab (Severe acute respiratory syndrome coronavirus 2, UniProt P0DTD1); assay: Inhibition of N-terminal MBP-tagged SARS CoV-2 Main protease by fluorescence based analysis
[2] = Binding affinity to SARS CoV Main protease incubated for 20 mins by reverse-phase HPLC analysis; set-up: species or system Severe acute respiratory syndrome-related coronavirus
[3] = Inhibition of SARS CoV Main protease using MCA-AVLQSGFR-Lys(DNP)-Lys-NH2 peptide as substrate by fluorescence based analysis; set-up: species or system Severe acute respiratory syndrome-related coronavirus
[4] = Cytotoxicity against cat CRFK cells assessed as reduction of cell viability; format: toxicity, cell-based, Felis catus
[5] = Cytotoxicity against human Huh-7 cells assessed as reduction of cell viability; format: toxicity, cell-based
[6] = Cytotoxicity against African green monkey Vero E6 cells assessed as reduction of cell viability by CellTiterGlo assay; format: toxicity, cell-based, Vero C1008; conditions: chlorocebus sabaeus
[7] = Cytotoxicity against mouse L929 cells assessed as reduction of cell viability; format: toxicity, cell-based
[8] = system: SARS-CoV; assay: Antiviral activity against SARS CoV infected in human Calu-3 cells assessed as reduction in viral RNA replication by qPCR analysis; format: functional, organism-based; conditions: Severe acute respiratory syndrome-related coronavirus
[9] = Inhibition of SARS CoV Main protease using Dabcyl-KTSAVLQSGFRKM-E(Edans)-NH2 peptide as substrate by FRET assay; set-up: species or system Severe acute respiratory syndrome-related coronavirus
[10] = Inhibition of SARS CoV Main protease using 2-aminobenzoyl-SVTLQSG-Tyr(NO2)-R peptide as substrate by FRET assay; set-up: species or system Severe acute respiratory syndrome-related coronavirus
[11] = target: T1, Replicase polyprotein 1ab; assay: Inhibition of SARS CoV-2 Main protease using MCA-AVLQSGFR-Lys(DNP)-Lys-NH2 peptide as substrate by fluorescence based analysis
[12] = AUC in Beagle dog at 5 mg/kg, iv measured upto 24 hrs by LC-MS/MS analysis; format: ADME, organism-based, Canis lupus familiaris; set-up: time < 24 hrs, dose 5 mg/kg, route iv; conditions: in vivo
[13] = Clearance in Sprague-Dawley rat at 10 mg/kg, iv measured upto 24 hrs by LC-MS/MS analysis; format: ADME, organism-based; conditions: in vivo
[14] = AUC in Sprague-Dawley rat at 10 mg/kg, iv measured upto 24 hrs by LC-MS/MS analysis; format: ADME, organism-based; set-up: time < 24 hrs, dose 10 mg/kg, route iv; conditions: in vivo
[15] = Clearance in Beagle dog at 5 mg/kg, iv measured upto 24 hrs by LC-MS/MS analysis; format: ADME, organism-based, Canis lupus familiaris; conditions: in vivo
[16] = Half life in Beagle dog at 5 mg/kg, iv measured upto 24 hrs by LC-MS/MS analysis; format: ADME, organism-based, Canis lupus familiaris; conditions: in vivo
[17] = Half life in Sprague-Dawley rat at 10 mg/kg, iv measured upto 24 hrs by LC-MS/MS analysis; format: ADME, organism-based; conditions: in vivo
[18] = system: SARS-CoV; assay: microbe, parasite or virus in culture; conditions: Severe acute respiratory syndrome-related coronavirus, Vero C1008, 48 h
[19] = Binding affinity to SARS CoV Main protease incubated for 10 mins by FRET assay; set-up: species or system Severe acute respiratory syndrome-related coronavirus
[20] = Cytotoxicity against African green monkey Vero E6 cells assessed as reduction of cell viability by CCK8 assay; format: toxicity, cell-based, Vero C1008; conditions: chlorocebus sabaeus
[21] = Binding affinity to SARS CoV N-terminal his-tagged Main protease using Dabcyl-KTSAVLQSGFRKME-Edan peptide as substrate by fluorescence based analysis; set-up: species or system Severe acute respiratory syndrome-related coronavirus
[22] = Inhibition of SARS CoV N-terminal his-tagged Main protease using Dabcyl-KTSAVLQSGFRKME-Edan peptide as substrate by fluorescence based analysis; set-up: species or system Severe acute respiratory syndrome-related coronavirus
[23] = Drug concentration in mouse lung at 20 mg/kg, sc; format: ADME, organism-based; conditions: in vivo
[24] = Half life in mouse at 20 mg/kg, sc; format: ADME, organism-based; conditions: in vivo
[25] = Mean residence time in mouse at 20 mg/kg, sc; format: ADME, organism-based; conditions: in vivo
[26] = Cytotoxicity against human HCT-8 cells assessed as reduction in cell viability by neutral red uptake assay; format: toxicity, cell-based
[27] = Oral bioavailability in Sprague-Dawley rat; format: ADME, organism-based; conditions: in vivo
[28] = system: SARS-CoV-2; format: functional, organism-based, Vero E6; conditions: Severe acute respiratory syndrome coronavirus 2, strain 107, Vero C1008
[29] = Cytotoxicity against human A549 cells assessed as reduction in cell viability by neutral red uptake assay; format: toxicity, cell-based
[30] = Cytotoxicity against dog MDCK cells assessed as reduction in cell viability by neutral red uptake assay; format: toxicity, cell-based, Canis lupus familiaris
[31] = Cytotoxicity against human Caco-2 cells assessed as reduction in cell viability by neutral red uptake assay; format: toxicity, cell-based
[32] = Cytotoxicity against African green monkey Vero cells assessed as reduction in cell viability by neutral red uptake assay; format: toxicity, cell-based; conditions: chlorocebus sabaeus
[33] = Toxicity in rat assessed as median lethal dose; conditions: in vivo, read-out: MLD
[34] = system: SARS-CoV-2; assay: Antiviral activity against SARS CoV-2 assessed as inhibition of viral growth; format: functional, organism-based; conditions: Severe acute respiratory syndrome coronavirus 2
[35] = system: SARS-CoV; format: functional, organism-based, Vero E6; conditions: Severe acute respiratory syndrome-related coronavirus, 2019-nCoV/USA_WA1/2020, Vero C1008, 72 h
[36] = Cytotoxicity against African green monkey Vero E6 cells assessed as reduction of cell viability by XTT assay; format: toxicity, cell-based, Vero C1008; conditions: chlorocebus sabaeus
[37] = Inhibition of SARS CoV Main protease by FRET assay; set-up: species or system Severe acute respiratory syndrome-related coronavirus
[38] = system: SARS-CoV-2; format: functional, organism-based, Vero E6; conditions: Severe acute respiratory syndrome coronavirus 2, Vero C1008

SMILES: Cc1cc(S(=O)(=O)c2c([N+](=O)[O-])cc(C(F)(F)F)cc2[N+](=O)[O-])c(Cl)cc1Cl
- pIC50 [1]: 6.52

SMILES: CCOC(=O)/C=C/[C@H](C[C@@H]1CCNC1=O)NC(=O)[C@H](CC(C)C)NC(=O)[C@@H](NC(=O)OCc1ccccc1)C(C)C
- pKi [2]: 6.28
- pIC50 [3]: 5.04

SMILES: CC(C)C[C@H](NC(=O)OCc1ccccc1)C(=O)N[C@@H](C[C@@H]1CCNC1=O)C(O)S(=O)(=O)O (stereo partly specified)
- CC50 [4]: > 200 µM
- CC50 [5]: > 200 µM
- CC50 [6]: > 200 µM
- CC50 [7]: > 200 µM

SMILES: O=C(/C=C/c1ccccc1)N[C@@H](CC1CCCCC1)C(=O)N[C@@H](C[C@@H]1CCNC1=O)C(=O)C(=O)NCc1ccccc1
- pEC50 [8]: 5.85
- pIC50 [9]: 6.15

SMILES: O=C(/C=C/c1ccccc1)N[C@@H](CC1CC1)C(=O)N[C@@H](C[C@@H]1CCNC1=O)C(=O)C(=O)NCc1ccccc1
- pEC50 [8]: 5.72
- pIC50 [9]: 6.62

SMILES: CC(C)C[C@H](NC(=O)/C=C/c1ccccc1)C(=O)N[C@@H](C[C@@H]1CCNC1=O)C(=O)C(=O)NCc1ccccc1
- pEC50 [8]: 5.14
- pIC50 [9]: 6.48

SMILES: O=C(Oc1cncc(Cl)c1)c1cccs1
- pIC50 [10]: 6.30
- pIC50 [11]: 7.09

SMILES: O=C[C@H](C[C@@H]1CCNC1=O)NC(=O)[C@H](Cc1cccc(F)c1)NC(=O)c1cc2ccccc2[nH]1
- CC50 [4]: > 100 µM
- AUC at 24 h [12]: 14900 ng·h/mL
- CC50 [5]: > 100 µM
- clearance [13]: 4.01 mL/min
- CC50 [6]: > 100 µM
- AUC at 24 h [14]: 41500 ng·h/mL
- clearance [15]: 5.8 mL/min
- half-life [16]: 5.5 h
- half-life [17]: 7.6 h
- CC50 [7]: > 100 µM

SMILES: O=C[C@H](C[C@@H]1CCNC1=O)NC(=O)[C@H](CC1CCCCC1)NC(=O)c1cc2ccccc2[nH]1
- CC50 [4]: > 100 µM
- CC50 [5]: > 100 µM
- CC50 [6]: > 100 µM
- CC50 [7]: > 100 µM

SMILES: C[C@@H](OC(C)(C)C)[C@H](NC(=O)OCc1ccccc1)C(=O)N[C@@H](CC1CCCCC1)C(=O)N[C@H](C=O)C[C@@H]1CCNC1=O
- pEC50 [18]: 6.22
- pKi [19]: 7.28
- CC50 [20]: > 200 µM

SMILES: O=C(On1nnc2ccccc21)c1ccc2[nH]ccc2c1
- pKi [21]: 8.12
- pIC50 [22]: 6.70

SMILES: CC(C)(C)OC(=O)Nc1cccn([C@@H](CC2CC2)C(=O)N[C@@H](C[C@@H]2CCNC2=O)C(=O)C(=O)NCc2ccccc2)c1=O
- pIC50 [9]: 6.05
- Ct [23]: 13 ng/g
- half-life [24]: 1.8 h
- MRT [25]: 2.7 h

SMILES: CC(C)C[C@H](NC(=O)OCC1CCC(F)(F)CC1)C(=O)N[C@@H](C[C@@H]1CCNC1=O)C(O)S(=O)(=O)O (stereo partly specified)
- CC50 [4]: > 100 µM
- CC50 [5]: > 100 µM
- CC50 [26]: > 100 µM
- CC50 [7]: > 100 µM

SMILES: CC1(C)[C@@H]2[C@@H](C(=O)N[C@H](C=O)C[C@@H]3CCNC3=O)N(C(=O)COc3ccc(OC(F)(F)F)cc3)C[C@@H]21
- bioavailability [27]: 14.6%
- pEC50 [28]: 6.07

SMILES: CCC[C@H](NC(=O)[C@H](CC(C)C)NC(=O)OCc1ccccc1)C(=O)C(=O)NCc1ccccn1
- CC50 [29]: > 100 µM
- CC50 [30]: > 100 µM
- CC50 [31]: > 100 µM
- CC50 [32]: > 100 µM

SMILES: O=c1c2ccccc2[se]n1Cc1ccco1
- LD50 [33]: > 4600 mg/kg
- pIC50 [11]: 7.13
- pKi [11]: 7.51
- pEC50 [34]: 5.33

SMILES: CCOC(=O)/C=C/[C@H](C[C@@H]1CCNC1=O)NC(=O)[C@H](CC(C)C)NC(=O)[C@@H](NC(=O)OCc1ccccc1)[C@@H](C)OC(C)(C)C
- pEC50 [35]: 5.54
- pKi [2]: 7.24
- pIC50 [11]: 6.82

SMILES: CC(=O)/C=C/[C@H](C[C@@H]1CCNC1=O)NC(=O)[C@H](CC(C)C)NC(=O)[C@H](CNC(=O)C(C)(C)C)NC(=O)OCc1ccccc1
- pKi [2]: 7.42

SMILES: O=C[C@H](C[C@@H]1CCNC1=O)NC(=O)[C@@H]1[C@H]2CCC[C@H]2CN1C(=O)COc1ccc(Cl)cc1Cl
- bioavailability [27]: 11.2%

SMILES: CCOC(=O)/C=C/[C@H](Cc1ccccc1)NC(=O)[C@H](Cc1ccccc1)NC(=O)/C=C\c1ccc(N(C)C)cc1
- pEC50 [35]: 4.74
- pKi [2]: 6.18
- CC50 [36]: > 200 µM

SMILES: CC(C)C[C@H](NC(=O)OC1CCC(F)(F)CC1)C(=O)N[C@@H](C[C@@H]1CCNC1=O)C(O)S(=O)(=O)O (stereo partly specified)
- CC50 [4]: > 100 µM
- CC50 [5]: > 100 µM
- pIC50 [37]: 5.66
- CC50 [26]: > 100 µM
- CC50 [7]: > 100 µM

SMILES: CC(C)C[C@H](NC(=O)OC1CCC(F)(F)CC1)C(=O)N[C@H](C=O)C[C@@H]1CCNC1=O
- CC50 [4]: > 100 µM
- CC50 [5]: > 100 µM
- pIC50 [37]: 6.32
- pIC50 [38]: 5.64
- CC50 [7]: > 100 µM

SMILES: CCCCC1CCC(OC(=O)N[C@@H](CC(C)C)C(=O)N[C@@H](C[C@@H]2CCNC2=O)C(O)S(=O)(=O)O)CC1 (stereo partly specified)
- CC50 [4]: 59.1 µM
- CC50 [5]: 59.1 µM
- pIC50 [37]: 6.00
- CC50 [7]: 59.1 µM

SMILES: CC(C)C[C@H](NC(=O)/C=C\c1ccccc1)C(=O)N[C@H](C=O)C[C@@H]1CCCNC1=O
- pKi [19]: 7.28

SMILES: CC(C)C[C@H](NC(=O)OC1CCCCC1)C(=O)N[C@@H](C[C@@H]1CCNC1=O)C(O)S(=O)(=O)O (stereo partly specified)
- CC50 [4]: > 100 µM
- CC50 [5]: > 100 µM
- pIC50 [37]: 5.42
- CC50 [7]: > 100 µM

SMILES: CC(C)C[C@H](NC(=O)[C@@H](NC(=O)OCc1ccccc1)[C@@H](C)OC(C)(C)C)C(=O)N[C@H](/C=C/C(=O)C1CC1)C[C@@H]1CCNC1=O
- pKi [2]: 7.00

SMILES: CC(=O)N[C@H](C(=O)N[C@H](C(=O)N[C@@H](CC(C)C)C(=O)N[C@@H](CCC(=O)N(C)C)C(=O)Cn1[nH]c(=O)c2c([N+](=O)[O-])cccc2c1=O)[C@@H](C)OCc1ccccc1)C(C)C
- pIC50 [1]: 6.22

SMILES: CSCC[C@@H](C=O)NC(=O)[C@H](CC(C)C)NC(=O)[C@H](CC(C)C)NC(C)=O (Ac-Leu-Leu-Met-aldehyde)
- CC50 [29]: > 100 µM
- CC50 [30]: > 100 µM
- CC50 [31]: > 100 µM
- CC50 [32]: > 100 µM

SMILES: O=c1cc(-c2ccccc2)oc2cc(O)c(O)c(O)c12 [BAICALEIN]
- CC50 [6]: > 200 µM
